# Data published in patent publication US9738884B2, “Therapeutic agent for epithelial and endothelial injury” (NIHON UNIVERSITY, priority 2012, dated 2017).
# System: pulmonary edema model mice
# Experiment: LPS-induced pulmonary edema model mice, lung weight/body weight (Example 10, Experiment 1)
# Type: in vivo
# Conditions: 350 ng/body weight (g) intravenous, three hours after LPS 100 μg/body weight (g) intravenous
# From the text: FIG. 10 is a graph showing the results of Experiment 1 in Example 10 of the present application, namely, the results regarding therapeutic effects on pulmonary edema (the effect of reducing the amount of lung water). In the graph, “Control” indicates normal mice, “LPS” indicates an “LPS (lipopolysaccharide)+control peptide (SEQ ID NO: 26)” administration group, and “LPS/Peptide” indicates an “LPS (lipopolysaccharide)+therapeutic peptide (SEQ ID NO: 25)” administration group. In addition, the numerical value of the vertical axis in the graph indicates the ratio of the weight (g) of lung to the body weight (g) of each mouse (lung weight (g)/body weight (g)).
# The therapeutic effects of the peptide of the present invention on model mice with pulmonary edema, which were caused by septicemia, disseminated intravascular coagulation syndrome (DIC) or acute respiratory distress syndrome (ARDS), were confirmed. […]
# A comparison experiment was carried out on a normal mouse group (healthy mice), an “LPS (lipopolysaccharide; endotoxin)+control peptide (SEQ ID NO: 26)” administration group, and an “LPS+therapeutic peptide (SEQ ID NO: 25)” administration group (7 mice/each group). […] Thereafter, the lung was removed from the mice in each group, and the weight of each lung was measured. The ratio of the weight (g) of the lung to the body weight (g) (lung weight (g)/body weight (g)) was calculated.
sequence,measurement,value
AETVFSNMDYENSTEAVFIQDDITKKKKKK [SEQ ID NO: 25],reduction of the LPS-increased amount of lung weight,72%
